Reference: PubChem BioAssay (NCI)
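Assay format: 96-well plates, 48-hour exposure. TGI marks complete inhibition of growth.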

How the values were obtained:
Assay in all cases: DTP human tumour cell line panel, 48 h
786-0 renal = tested on: 786-0 renal
A549 NSCLC = tested on: A549 NSCLC
ACHN renal = tested on: ACHN renal
CAKI-1 renal = tested on: CAKI-1 renal
COLO 205 colon = tested on: COLO 205 colon
DLD-1 colon = tested on: DLD-1 colon
DMS 114 small cell lung = tested on: DMS 114 small cell lung
DMS 273 small cell lung = tested on: DMS 273 small cell lung
EKVX NSCLC = tested on: EKVX NSCLC
HCC-2998 colon = tested on: HCC-2998 colon
HCT-116 colon = tested on: HCT-116 colon
HCT-15 colon = tested on: HCT-15 colon
HOP-18 NSCLC = tested on: HOP-18 NSCLC
HOP-62 NSCLC = tested on: HOP-62 NSCLC
HOP-92 NSCLC = tested on: HOP-92 NSCLC
HT29 colon = tested on: HT29 colon
IGROV1 ovarian = tested on: IGROV1 ovarian
KM12 colon = tested on: KM12 colon
KM20L2 colon = tested on: KM20L2 colon
LOX IMVI melanoma = tested on: LOX IMVI melanoma
LXFL 529 NSCLC = tested on: LXFL 529 NSCLC
M14 melanoma = tested on: M14 melanoma
M19-MEL melanoma = tested on: M19-MEL melanoma
MALME-3M melanoma = tested on: MALME-3M melanoma
NCI-H226 lung = tested on: NCI-H226 lung
NCI-H23 lung = tested on: NCI-H23 lung
NCI-H460 lung = tested on: NCI-H460 lung
OVCAR-3 ovarian = tested on: OVCAR-3 ovarian
OVCAR-4 ovarian = tested on: OVCAR-4 ovarian
OVCAR-5 ovarian = tested on: OVCAR-5 ovarian
OVCAR-8 ovarian = tested on: OVCAR-8 ovarian
RPMI-8226 leukemia = tested on: RPMI-8226 leukemia
RXF 393 renal = tested on: RXF 393 renal
SF-268 CNS = tested on: SF-268 CNS
SF-295 CNS = tested on: SF-295 CNS
SF-539 CNS = tested on: SF-539 CNS
SK-MEL-2 melanoma = tested on: SK-MEL-2 melanoma
SK-MEL-28 melanoma = tested on: SK-MEL-28 melanoma
SK-OV-3 ovarian = tested on: SK-OV-3 ovarian
SN12C renal = tested on: SN12C renal
SNB-19 CNS = tested on: SNB-19 CNS
SNB-75 CNS = tested on: SNB-75 CNS
SNB-78 CNS = tested on: SNB-78 CNS
SW-620 colon = tested on: SW-620 colon
TK-10 renal = tested on: TK-10 renal
U251 CNS = tested on: U251 CNS
UACC-257 melanoma = tested on: UACC-257 melanoma
UACC-62 melanoma = tested on: UACC-62 melanoma
UO-31 renal = tested on: UO-31 renal
XF 498 CNS = tested on: XF 498 CNS
A498 renal = tested on: A498 renal
CCRF-CEM leukemia = tested on: CCRF-CEM leukemia
HL-60(TB) leukemia = tested on: HL-60(TB) leukemia
K-562 leukemia = tested on: K-562 leukemia
MOLT-4 leukemia = tested on: MOLT-4 leukemia
NCI-H522 lung = tested on: NCI-H522 lung
SK-MEL-5 melanoma = tested on: SK-MEL-5 melanoma
SR leukemia = tested on: SR leukemia

Measured: TGI

CCOC(=O)C(=O)Nc1c(C)cccc1C
not listed: A498 renal | CCRF-CEM leukemia | HL-60(TB) leukemia | K-562 leukemia | MOLT-4 leukemia | NCI-H522 lung | SK-MEL-5 melanoma | SR leukemia
> 100 µM: all other assays above

COc1ccc(C2S/C(=C\c3ccc(O)cc3)C(=O)N2NC(=O)Cc2ccccc2)cc1 (stereo unspecified)
not listed: EKVX NSCLC | HCC-2998 colon | KM20L2 colon | OVCAR-3 ovarian | SNB-19 CNS | SNB-78 CNS | XF 498 CNS
> 100 µM: all other assays above
